Data published in publication PMC7286788 (ACS infectious diseases, 2019).
Where two headings read alike, the source gives them in different places. Marks after values point to notes of the source that are not given here.

B1: MurG of M. smegmatis (Mycolicibacterium smegmatis MC2 155) (protein)
chain: MNKGSRDNNHSDRGISVVLAGGGTAGHVEPAMAVADALRALDPDVRITALGTQRGLETRLVPQRGYDLELITPVPLPRKPSKDLLRLPMRVRTAIRQTRDVLTGVNADVVVGFGGYVALPAYLAARGGLTGRRKVPVVVHEANARAGLANRVGARSARRVLSAVPDSGLRNVEVVGVPVRESITSLDRAALRAQARAEFGFAEDARVLLVFGGSQGAQSINRAVSAAAKDLAAAGISVLHAHGPKNTLDLPPADPQAPPYVAVPYLDRMDLAYAAADLAICRSGAMTVAEVTAVGLPAIYVPLPIGNGEQRLNALPVVDAGGGLLVDDADLSGDTVARTVIPLLTDDSKLAAMTAAASLSGHPDAARRVAQVALEIARAARKKAS

How the values were obtained:
MraY/MurX = MraY/MurX (Mycolicibacterium smegmatis, UniProt A0R019); experiment: Substrate tolerance of MurX/MraY, P-60 of M. smegmatis; assay type: biochemical, Mycobacterium smegmatis; settings: P-60 of wild-type M. smegmatis (ATCC607)
Sequence of MraY/MurX (A0R019 whole entry): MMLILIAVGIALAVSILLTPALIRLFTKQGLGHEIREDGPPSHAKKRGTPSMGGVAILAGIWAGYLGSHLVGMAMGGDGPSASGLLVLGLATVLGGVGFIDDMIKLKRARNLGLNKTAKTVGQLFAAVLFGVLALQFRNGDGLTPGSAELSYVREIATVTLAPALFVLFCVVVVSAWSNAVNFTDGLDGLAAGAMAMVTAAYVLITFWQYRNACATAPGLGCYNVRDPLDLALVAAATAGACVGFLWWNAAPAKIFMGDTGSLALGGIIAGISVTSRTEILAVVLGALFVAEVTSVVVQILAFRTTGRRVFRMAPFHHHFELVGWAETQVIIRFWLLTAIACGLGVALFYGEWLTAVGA

in vitro = settings: African green monkey
HyMurG [1] = target: T1, HyMurG (Hydrogenivirga sp. 128-5-R1-1, UniProt A8US35); experiment: UV-Vis-based MurG assay; assay type: biochemical; settings: for inhibition at 10 µM / inhibition at 50 µM / inhibition at 100 µM: read-out: HthermMurG inhibition (%); for Inhibition of MurG function / lipid II formation: 50–100 μM
T1 sequence (A8US35 1-350): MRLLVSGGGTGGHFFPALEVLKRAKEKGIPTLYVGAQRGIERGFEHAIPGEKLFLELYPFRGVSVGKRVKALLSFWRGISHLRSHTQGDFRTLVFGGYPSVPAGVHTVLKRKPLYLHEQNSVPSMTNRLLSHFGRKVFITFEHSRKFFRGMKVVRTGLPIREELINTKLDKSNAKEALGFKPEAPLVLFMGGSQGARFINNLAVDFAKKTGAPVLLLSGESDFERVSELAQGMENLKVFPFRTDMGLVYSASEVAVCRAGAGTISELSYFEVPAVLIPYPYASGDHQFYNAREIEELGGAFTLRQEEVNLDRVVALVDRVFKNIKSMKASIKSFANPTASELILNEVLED

MsmegMurG [2] = target: T2, MsmegMurG (Mycolicibacterium smegmatis, UniProt A0R016); experiment: biochemical; parameters: species or system Mycobacterium smegmatis
MsmegMurG [3] = target: T2, MsmegMurG; experiment: biochemical; parameters: species or system Mycobacterium smegmatis; settings: for inhibition at 10 µM / inhibition at 50 µM / inhibition at 100 µM: read-out: (MsmegMurG) inhibition (%)
MurG = target: T3, MurG (Mycolicibacterium smegmatis, UniProt A0R016); experiment: MurG kinetic parameters and mode of inhibition, enzyme source not stated; assay type: biochemical
T3 sequence (A0R016 1-385): B1 chain

[4] = tested on: M. smegmatis (ATCC607) and M. tuberculosis (H37Rv); experiment: Antimycobacterial activity, text summary for both species; assay type: cell-based, Mycobacterium spp.; settings: 50 μg/mL
MsmegMraY = MsmegMraY (Mycolicibacterium smegmatis, UniProt A0R019); experiment: biochemical; assay type: biochemical, Mycobacterium smegmatis
Sequence of MsmegMraY (A0R019 whole entry): as the sequence (A0R019 whole entry) above

HyMurG [5] = target: T1, HyMurG; experiment: HPLC-based MurG assay, dose-response, HyMurG; assay type: biochemical; settings: read-out: IC50 HyMurG; HPLC-based method; average of two-three experiments
M. tuberculosis (H37Rv) = experiment: MIC determination, M. tuberculosis; assay type: cell-based, Mycobacterium tuberculosis; settings: 7H9 containing OADC; 14 days
M. smegmatis (ATCC607) = experiment: MIC determination, resazurin, M. smegmatis; assay type: cell-based, Mycobacterium smegmatis; settings: 7H9 with 0.5% tween 80, 3 days at 37 °C
MurG of M. smegmatis = target: T4, MurG of M. smegmatis (Mycolicibacterium smegmatis, UniProt A0R016); experiment: Kinetic studies of MurG of M. smegmatis; assay type: biochemical, Mycobacterium smegmatis; settings: P-60 of M. smegmatis; donor 8
T4 sequence (A0R016 1-385): B1 chain

HyMurG [6] = target: T1, HyMurG; experiment: Kinetic studies with HyMurG; assay type: biochemical; settings: HyMurG; donor 8
[7] = substrate: CC(=O)N[C@H]1[C@@H](OP(=O)(O)OP(=O)(O)OC[C@H]2O[C@@H](n3ccc(=O)[nH]c3=O)[C@H](O)[C@@H]2O)O[C@H](CO)[C@@H](O)[C@@H]1O; experiment: Kinetic studies of MurG of M. smegmatis; assay type: biochemical, Mycobacterium smegmatis; settings: other: apparent Km

Molecule | IC50 (in vitro) [µg/mL] | inhibition at 10 µM (HyMurG [1]) [%] | inhibition at 50 µM (HyMurG [1]) [%] | inhibition at 100 µM (HyMurG [1]) [%] | IC50 (MsmegMurG [2]) [µM] | inhibition at 10 µM (MsmegMurG [3]) [%] | inhibition at 50 µM (MsmegMurG [3]) [%] | inhibition at 100 µM (MsmegMurG [3]) [%] | IC50 (MsmegMraY) [µM] | other results
C/C(=C/COP(=O)(O)O)CCCC(C)CCCC(C)CCCC(C)C (stereo not shown) [(2Z)-phytyl phosphate] | – | – | – | – | – | – | – | – | – | Formation of lipid I-N^ε-derivatives (MraY/MurX): did not provide the corresponding lipid I derivatives
CC[C@@H](CO)NCCN[C@@H](CC)CO [Ethambutol] | > 100 | – | – | – | – | – | – | – | – | –
C[C@@H]([C@H](N)C(=O)N[C@H](C(=O)O)[C@H]1O[C@@H](n2ccc(=O)[nH]c2=O)[C@H](O)[C@@H]1O)[C@H](O)c1ccc(O)cn1 [Nikkomycin Z, nikkomycin Z] | > 100 | 33 | 50 | 95 | 9.5 | 35 | 45 | 93 | > 100 | IC50 (HyMurG [1]; read-out: IC50 against HyMurG via UV-Vis spectrometry, dose-response curves): 8.7 µM; IC50 (MsmegMurG [3]): 9.5 µM; Mode of MurG inhibition (MurG): competitive inhibitory activity; Growth inhibition of M. smegmatis and M. tuberculosis [4]: did not inhibit growth; IC50 (HyMurG [5]): 8.7 µM
NNC(=O)c1ccncc1 [INH] | – | – | – | – | – | – | – | – | – | M. tuberculosis (H37Rv) MIC (M. tuberculosis (H37Rv)): 0.16 µg/mL; Vero cell cytotoxicity IC50 (Vero cell): >100 µg/mL; M. smegmatis (ATCC607) MIC (M. smegmatis (ATCC607)): 0.78 µg/mL
O=C(NC(=O)c1ccccc1Cl)Nc1ccc(OC(F)(F)F)cc1 [Triflumuron, triflumuron] | – | 0 | 0 | 0 | > 100 | 0 | 0 | 0 | > 100 | Inhibition of MurG function / lipid II formation (HyMurG [1]): did not inhibit; IC50 (HyMurG [5]): > 100 µM
C=C(C/C=C(\C)CCC=C(C)C)CCC(C)(C)/C=C/CC/C(C)=C\CO[C@H](COP(=O)(O)O[C@H]1O[C@H](C(N)=O)[C@@](C)(O)[C@H](OC(N)=O)[C@H]1O[C@@H]1O[C@H](CO[C@@H]2O[C@H](CO)[C@@H](O)[C@H](O)[C@H]2O)[C@@H](O[C@@H]2O[C@H](C)[C@@H](O[C@@H]3O[C@H](C(=O)NC4=C(O)CCC4=O)[C@H](O)[C@H](O)[C@H]3O)[C@H](O)[C@H]2NC(C)=O)[C@H](O)[C@H]1NC(C)=O)C(=O)O [Moenomycin A, moenomycin A] | – | 0 | 0 | 12 | > 100 | 0 | 0 | 15 | > 100 | Inhibition of MurG function / lipid II formation (HyMurG [1]): did not inhibit
C55-lipid II-N^ε-C6-dansyl-FITC [Compound 9-C55] | – | – | – | – | – | – | – | – | – | Vmax for 9-C55 transformation (MurG of M. smegmatis): 0.56 µM/min; Vmax for 9-C55 transformation (HyMurG [6]): 0.67 µM/min
CO[C@H]1/C=C/O[C@@]2(C)Oc3c(C)c(O)c4c(O)c(c(/C=N/N5CCN(C)CC5)c(O)c4c3C2=O)NC(=O)/C(C)=C\C=C\[C@H](C)[C@H](O)[C@@H](C)[C@@H](O)[C@@H](C)[C@H](OC(C)=O)[C@@H]1C [Rifampicin] | > 100 | – | – | – | – | – | – | – | – | –
B1 | – | – | – | – | – | – | – | – | – | Km ([7]; 2e-C55 37.5 μM): 36 ± 10^b μM; Km ([7]; 2e-C55 75.0 μM): 37 ± 3.0 µM
